# Reference: patent US12414996B2, “Organic anion transporting peptide-based cancer imaging and therapy” (Da Zen Theranostics, Inc., priority 2014, dated 2025)
# Experiments:
# cancer = assay: In vivo cancer targeting of heptamethine cyanine dye derivatives (Nuclear/NIR imaging); conditions: tumor specific uptake by Nuclear/NIR imaging
# Excerpt: The inventor synthesized several heptamethine cyanine dye derivatives (Table 1) and evaluated the tumor specific uptake using Nuclear/NIR imaging.
# PC3 = assay: Tumor cell growth inhibition IC50, PC3; format: cell-based; conditions: Prostate Cancer cell line PC3; read-out: Half maximal inhibitory concentration (IC50) PC3
# Excerpt: (§1) In addition to DZ-1-Gem, some agents of the invention may include other antitumor active moieties, such as cisplatin. For example, the tumor cell growth inhibition activities of DZ-1 linked with cisplatin (“DZ-1-cisplatin”) were compared with those of cisplatin alone in various tumor cells, including prostate, breast, renal, kidney, and lung cancer cell lines.
# LNCaP [1] = assay: Tumor cell growth inhibition IC50, LNCaP; format: cell-based; conditions: Prostate Cancer cell line LNCaP; read-out: Half maximal inhibitory concentration (IC50) LNCaP
# Excerpt: as §1
# C4-2B [2] = assay: Tumor cell growth inhibition IC50, C4-2B; format: cell-based; conditions: Prostate Cancer cell line C4-2B; read-out: Half maximal inhibitory concentration (IC50) C4-2B
# Excerpt: as §1
# ACHN = assay: Tumor cell growth inhibition IC50, ACHN; format: cell-based; conditions: Renal Cancer cell line ACHN; read-out: Half maximal inhibitory concentration (IC50) ACHN
# Excerpt: as §1
# Hep G2 = assay: Tumor cell growth inhibition IC50, Hep G2; format: cell-based; conditions: Hepatic Cancer cell line Hep G2; read-out: Half maximal inhibitory concentration (IC50) Hep G2
# H358 = assay: Tumor cell growth inhibition IC50, H358; format: cell-based; conditions: Lung Cancer cell line H358; read-out: Half maximal inhibitory concentration (IC50) H358
# Excerpt: as §1
# LNCaP [3] = assay: Cytotoxicity (IC50) on cancer cell growth in vitro, LNCaP; format: cell-based, human; conditions: LNCaP prostate cancer cells in culture
# C4-2B [4] = assay: Cytotoxicity (IC50) on cancer cell growth in vitro, C4-2B; format: cell-based, human; conditions: C4-2B prostate cancer cells in culture
# PC-3 = assay: Cytotoxicity (IC50) on cancer cell growth in vitro, PC-3; format: cell-based, human; conditions: PC-3 prostate cancer cells in culture
# C4-2 = assay: Cytotoxicity (IC50) on cancer cell growth in vitro, C4-2; format: cell-based, human; conditions: C4-2 prostate cancer cells in culture
# MiaPaCa II = assay: Cytotoxicity (IC50) on cancer cell growth in vitro, MiaPaCa II; format: cell-based, human; conditions: MiaPaCa II pancreatic cancer cells in culture
# BX-PC3 = assay: Cytotoxicity (IC50) on cancer cell growth in vitro, BX-PC3; format: cell-based, human; conditions: BX-PC3 pancreatic cancer cells in culture
# prostate PDX tumors = assay: Uptake of NIR dye by prostate PDX tumors implanted in mouse subrenal capsules; format: in vivo; conditions: i.p., imaging after 48 hours, excitation 783 nm, emission 840 nm
# Method: (A) Representative NIR fluorescence imaging of control mouse with no tumor and mouse with sham-operation and PCa implantation in the subrenal capsules of the kidneys. Mice were injected i.p with NIR dye, MHI-148, 48 hours before fluorescence imaging at excitation of 783 nm and emission of 840 nm. […] (B) Representative ex vivo NIR fluorescence imaging of kidneys with sham operation and PCa tumor implantations. NIR fluorescence signal was only detected in the growing PCa tumors implanted in the subrenal capsule of the right kidney. (C) Fluorescent microscopy of DAPI, NIR, and merged images of frozen sections of the human PCa tumor and the mouse kidney from the subrenal xenograft model (200× magnification) (D) Representative H&E staining of the PCa tumors implanted in the mouse kidney capsule (40× magnification; inlet: 400× magnification).
# The uptakes of NIR dye MHI-148 by prostate PDX tumors implanted in mouse subrenal capsules were investigated. […] Mice were injected i.p with NIR dye, MHI-148. After 48 hours, fluorescence imaging was performed with an excitation of 783 nm and emission of 840 nm. […] NIR fluorescence signal was only detected in the growing prostate cancer tumors implanted in the subrenal capsule of the right kidney.
# pancreatic PDX tumors = assay: Uptake of NIR dye by pancreatic PDX tumors implanted in mouse subrenal capsules; format: in vivo; conditions: subrenal capsule implant
# Excerpt: (A) NIR fluorescent imaging of mouse bearing human pancreatic PDX tumors in subrenal capsules (excitation: 783 nm; […] nm) (B) Ex vivo bright field and NIR fluorescent imaging of pancreatic PDX tumors in the kidney capsules and other organs harvested from mouse and (C) the NIR fluorescent intensity was quantified for the tumor and for each organ (total radiance efficiency [p/s]/[μW/cm^2]) (D) Fluorescent microscopy of DAPI, NIR, and merged images of frozen section of pancreatic PDX tumor in the kidney capsule. White dash line outlines the mouse kidney and red dash line outlines the pancreatic PDX tumor.
# The uptakes of NIR dye MHI-148, by pancreatic patient-derived xenografts (PDX) tumors implanted in mouse subrenal capsules were investigated. […] White dash line outlines the mouse kidney and red dash line outlines the pancreatic PDX tumor.
# MCF-7 = assay: Tumor cell growth inhibition IC50, MCF-7; format: cell-based; conditions: Breast Cancer cell line MCF-7; read-out: Half maximal inhibitory concentration (IC50) MCF-7
# Excerpt: as §1
# [5] = tested on: prostate cancer PC3 tumors; assay: Uptake by prostate cancer PC3 tumors in mice (NIR imaging); format: in vivo; conditions: for uptake by PC3 tumor in mice: 100 nmole i.p., imaged 48 hours thereafter
# CW22Rv1 cells = conditions: 5 μM, 10 min
# Method: (§2) (A) Uptake of DZ-1-Gem (5 μM, 10 min) by U87 and CW22Rv1 cells. IR-783 was used a positive control in parallel. Scale bar represents 50 μm. (B) Proliferation of U87 cells treated with vehicle, gemcitabine (200 nM) or DZ-1-Gem (200 nM) for 4 consecutive days.
# (§3) IR-783 was used a positive control in parallel. Scale bar represents 50 μm.
# U87 cells [6] = conditions: 5 μM, 10 min
# Method: as §2, §3
# U87 cells [7] = conditions: 200 nM, 4 consecutive days
# Method: as §2
# (§4) In these experiments, cells were fixed and stained with crystal violet, and OD value at the wavelength of 595 nm was determined (n=5 for each experimental group, mean±SEM) *p<0.05, **p<0.01.
# intracranial U87 tumor = conditions: 10 mg/kg, twice a week
# Method: as §2, §4
# [8] = tested on: CW22Rv1 prostate tumor brain metastases; assay: Survival of mice bearing CW22Rv1 prostate tumor brain metastases (Kaplan-Meier); format: in vivo; conditions: 10 mg/kg, twice a week; p<0.001 (log-rank test) vs vehicle
# Excerpt: as §3
# pancreatic MIAPaCa cells = conditions: DZ-1-gemcitabine 10 mg/kg vs gemcitabine 2.5 mg/kg, twice a week i.p.
# Excerpt: (§5) Arrows indicate the onset of treatments. * p<0.05; ** p<0.01; *** p<0.001.
# as §5
# [9] = tested on: prostate cancer PC3 cells; conditions: DZ-1-gemcitabine 10 mg/kg vs gemcitabine 2.5 mg/kg, twice a week i.p.
# Excerpt: as §5, §5
# MIAPaCa tumors = conditions: 10 mg/kg; subcutaneous luc-tagged MIAPaCa tumors; in vivo and ex vivo imaging
compound,measurement,setting,value
CC1(C)C(/C=C/C2=C(Cl)C(=C/C=C3/N(CCCCCC(=O)O)c4ccccc4C3(C)C)/CCC2)=[N+](CCCCS(=O)(=O)[O-])c2ccccc21,Cancer targeting,cancer,Positive
CC1(C)C(/C=C/C2=C(SCCC(=O)Nc3ccn(C4OC(CO)C(O)C4(F)F)c(=O)n3)C(=C/C=C3/N(CCCCS(=O)(=O)O)c4ccccc4C3(C)C)/CCC2)=[N+](CCCCS(=O)(=O)[O-])c2ccccc21 (stereo not drawn),Cancer targeting,cancer,Negative
CC1(C)C(/C=C/C2=C(Cl)C(=C/C=C3/N(CCCCCC(=O)O)c4ccccc4C3(C)C)/CCC2)=[N+](CCCCCC(=O)O)c2ccccc21,Cancer targeting,cancer,Positive
CC1(C)C(/C=C/C2=C(NCCCC(=O)O)C(=C/C=C3/N(CCCCS(=O)(=O)O)c4ccccc4C3(C)C)/CCC2)=[N+](CCCCS(=O)(=O)[O-])c2ccccc21,Cancer targeting,cancer,Negative
CC1(C)C(/C=C/C2=C(Cl)C(=C/C=C3/N(CCCCS(=O)(=O)O)c4ccccc4C3(C)C)/CCC2)=[N+](CCCCS(=O)(=O)[O-])c2ccccc21,Cancer targeting,cancer,Positive
CC1(C)C(/C=C/C2=C(Cl)C(=C/C=C3/N(CCCCCC(=O)NCCCCC(NC(=O)CN4CCN(CC(=O)O)CCN(CC(=O)O)CCN(CC(=O)O)CC4)C(=O)O)c4ccccc4C3(C)C)/CCC2)=[N+](CCCCS(=O)(=O)[O-])c2ccccc21 (stereo not drawn),Cancer targeting,cancer,Positive
CC1(C)C(/C=C/C2=C(Cl)C(=C/C=C3/N(CCCCCC(=O)Nc4ccn(C5OC(CO)C(O)C5(F)F)c(=O)n4)c4ccccc4C3(C)C)/CCC2)=[N+](CCCCS(=O)(=O)[O-])c2ccccc21 (stereo not drawn),Cancer targeting,cancer,Positive
CC1(C)C(/C=C/C2=C(Cl)C(=C/C=C3/N(CCCCCC(=O)Nc4ccc(CC5CN(CC(=O)O)CCN(CC(=O)O)CCN5CC(=O)O)cc4)c4ccccc4C3(C)C)/CCC2)=[N+](CCCCS(=O)(=O)[O-])c2ccccc21 (stereo not drawn),Cancer targeting,cancer,Positive
CC1(C)C(/C=C/C2=C(SCCCC(=O)O)C(=C/C=C3/N(CCCCS(=O)(=O)O)c4ccccc4C3(C)C)/CCC2)=[N+](CCCCS(=O)(=O)[O-])c2ccccc21,Cancer targeting,cancer,Negative
CCC(=[N][Pt]([NH2])([NH2])[Cl])N(C)CCNC(=O)CCCCCN1/C(=C/C=C2\CCCC(/C=C/C3=[N+](CCCCS(=O)(=O)[O-])c4ccccc4C3(C)C)=C2Cl)C(C)(C)c2ccccc21,Cancer targeting,cancer,Positive
"N.N.[Cl][Pt][Cl] [Cisplatin, reference compound]",IC50,PC3,> 50000 nM
same,IC50,LNCaP [1],> 50000 nM
same,IC50,C4-2B [2],> 50000 nM
same,IC50,ACHN,28700 nM
same,IC50,Hep G2,> 50000 nM
same,IC50,H358,> 50000 nM
C#CCN(C)CCCOc1ccc(Cl)cc1Cl [Clorgyline],IC50,LNCaP [3],81000 nM
same,IC50,C4-2B [4],114000 nM
same,IC50,PC-3,120000 nM
CC(=O)O[C@@]12CO[C@@H]1C[C@H](O)[C@@]1(C)C(=O)[C@H](O)C3=C(C)[C@@H](OC(=O)[C@H](O)[C@@H](NC(=O)OC(C)(C)C)c4ccccc4)C[C@@](O)([C@@H](OC(=O)c4ccccc4)[C@H]21)C3(C)C [Docetaxel],IC50,LNCaP [3]; Homo sapiens,10 nM
same,IC50,C4-2; Homo sapiens,3200 nM
same,IC50,PC-3; Homo sapiens,330 nM
same,IC50,"MiaPaCa II; Homo sapiens, MIA PaCa-2",6 nM
same,IC50,"BX-PC3; Homo sapiens, BXPC-3",7 nM
Nc1ccn([C@@H]2O[C@H](CO)[C@@H](O)C2(F)F)c(=O)n1 [Gemcitabine],IC50,LNCaP [3]; Homo sapiens,250 nM
same,IC50,C4-2; Homo sapiens,85 nM
same,IC50,PC-3; Homo sapiens,380 nM
same,IC50,"MiaPaCa II; Homo sapiens, MIA PaCa-2",22 nM
same,IC50,"BX-PC3; Homo sapiens, BXPC-3",135 nM
CC1(C)C(/C=C/C2=C(Cl)C(=C/C=C3\N(CCCCCC(=O)O)c4ccccc4C3(C)C)/CCC2)=[N+](CCCCCC(=O)O)c2ccccc21 [MHI-148],NIR fluorescence signal (uptake) in prostate PDX tumor vs sham-operated kidney and control mouse,prostate PDX tumors,Only the prostate cancer tumor implanted in the subrenal capsule of the right kidney showed the NIR fluorescence signal
same,uptake of NIR dye in pancreatic PDX tumor vs mouse kidney (fluorescent microscopy of frozen section),pancreatic PDX tumors,Only the pancreatic tumor uptakes the NIR dye
IR-783-N1-methylethylenediamine-cisplatin [DZ-1-cisplatin],IC50,PC3,7570 nM
same,IC50,LNCaP [1],21600 nM
same,IC50,C4-2B [2],15900 nM
same,IC50,MCF-7,13100 nM
same,IC50,ACHN,4030 nM
same,IC50,Hep G2,> 50000 nM
same,IC50,H358,4950 nM
same,uptake by PC3 tumor in mice,[5],"accumulate only in the tumor cells, but not in the normal organs"
IR-783-gemcitabine [DZ-1-gemcitabine],IC50,LNCaP [3],340 nM
same,IC50,C4-2,93 nM
same,IC50,PC-3,420 nM
same,IC50,MiaPaCa II,85 nM
same,IC50,BX-PC3,230 nM
same,uptake by PC3 tumor in mice,[5],"accumulate only in the tumor cells, but not in the normal organs"
same,uptake by PC3 tumors vs normal organs,"[5]; 10 mg/kg, subcutaneous luc-tagged PC3 tumors, in vivo and ex vivo imaging",specifically by prostate and pancreatic tumors but not normal organs
same,uptake by CW22Rv1 cells,CW22Rv1 cells,readily taken up
same,uptake by U87 cells,U87 cells [6],readily taken up
same,inhibition of U87 cell proliferation,U87 cells [7],as effective as Gem
same,intracranial U87 tumor growth (bioluminescence),intracranial U87 tumor,"effectively suppressed tumor growth, resulting in no bioluminescence"
same,survival of mice,[8],significantly improved survival
same,prevention and inhibition of subcutaneous MIAPaCa tumor growth (tumor volume),pancreatic MIAPaCa cells,more effective than Gemcitabine
same,prevention and inhibition of subcutaneous PC3 tumor growth (tumor volume),[9],more effective than Gemcitabine
same,uptake by MIAPaCa tumors vs normal organs,MIAPaCa tumors,specifically by prostate and pancreatic tumors but not normal organs
